Legend:
human IRAK-4 = human IRAK-4 (Homo sapiens (Human), UniProt Q9NWZ3); experiment: Measurement of human IRAK-4 inhibitory activity (TR-FRET, peptide substrate phosphorylation, 10 μM ATP); format: biochemical; settings: 1 nM IRAK-4, 10 μM ATP, 23° C., 30 minutes; average values
Outline: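 With 1 nM IRAK-4, 0.5 μM biotinylated peptide and 10 μM ATP, compound incubated 30 min at 23 °C in 50 mM HEPES pH 7.2 with Mg2+/Mn2+. Stopped with EDTA plus europium-cryptate anti-phosphopeptide antibody and streptavidin-XL665, 60 min at 23 °C. Activity taken as the 665/620 nm TR-FRET ratio.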

[1] = test system: collagen-induced arthritis in Lewis rats; experiment: Rat collagen-induced arthritis model (footpad volume); format: in vivo; settings: 19 days after first immunization
Experimental: Eight weeks old female Lewis rats (SLC Inc.) were immunized with bovine type II collagen (CII, Collagen Technical Study Session, product number K41) to induce arthritis. A 1:1 mixed emulsion of the incomplete Freund's adjuvant (Difco, Cat. 263910) and a 3 mg/mL solution of CII was prepared, and 0.7 mL of the emulsion was injected to each rat at seven sites in the tale base part and skins of both fore and hind legs in a volume of 0.1 mL per site. Booster immunization was performed after 7 days by injecting 0.2 mL of the same 1:1 mixed emulsion of the incomplete Freund's adjuvant and CII as that used in the first day at two sites in the tale base part in a volume of 0.1 mL per site. After 12 days, footpad volumes of the both hind feet of the animals were measured by using Plethysmometer (UGO BASILE, Cat. 37140), and the individual animals were divided into groups according to the footpad volume ratio based on that of the normal group and body weight. After they were divided into groups, administration of a test compound or a solvent (vehicle, 0.5% methylcellulose) was started, and it was orally administered twice a day for 7 days (provided that, on the day of grouping, the administration was performed only once after grouping). After the start of the administration, the footpad volumes of both hind feet of the animals were measured every other day or every 3 days by using Plethysmometer, and influence of the test compound was evaluated.
Average value of the footpad volumes was calculated for each individual on each measurement day by using Excel 2010 (Microsoft), and plotted as a graph by using GraphPadPrism 7.03 (GraphPad Software, Inc.). The normal group was defined to be a 100% suppression group, and the solvent administration group was defined to be a 0% suppression group. The suppression ratios based on these controls were calculated for each concentration of the test compound by using Excel 2010 (Microsoft).

[2] = test system: LPS-stimulated TNFα production in THP-1 cells; experiment: LPS-stimulated TNFα production inhibition test using human acute monocytic leukemia cell strain THP-1; format: cell-based; settings: Homo sapiens, THP-1, 4 h, LPS 2.5 ng/mL, average values
Outline: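 Readout was HTRF-measured TNFα in supernatants, calibrated against a standard curve, after LPS challenge (2.5 ng/mL final, 4 h) of THP-1 cells pretreated 1 h at 37 °C with compound. Unstimulated wells defined 100% suppression and vehicle wells 0%. IC50 was fitted with a 4-parameter logistic model.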

human IRAK-4, sequence (Q9NWZ3 whole entry): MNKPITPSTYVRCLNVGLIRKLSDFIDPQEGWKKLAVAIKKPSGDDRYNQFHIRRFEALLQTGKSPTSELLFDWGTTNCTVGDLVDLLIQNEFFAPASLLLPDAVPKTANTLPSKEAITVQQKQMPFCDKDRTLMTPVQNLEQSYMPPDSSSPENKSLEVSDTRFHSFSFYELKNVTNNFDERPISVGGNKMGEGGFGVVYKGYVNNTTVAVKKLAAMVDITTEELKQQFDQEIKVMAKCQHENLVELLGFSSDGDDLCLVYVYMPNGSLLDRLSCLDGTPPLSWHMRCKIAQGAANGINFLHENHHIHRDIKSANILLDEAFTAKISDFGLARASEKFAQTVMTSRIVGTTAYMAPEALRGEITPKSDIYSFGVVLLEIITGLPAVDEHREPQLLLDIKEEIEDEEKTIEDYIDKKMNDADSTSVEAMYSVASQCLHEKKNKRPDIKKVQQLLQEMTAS

COc1c(-c2cnc(CO[C@H]3CCC[C@@H]3O)nc2)ccc2nc(NC(=O)C3CC3)sc12 [c-01-01, N-(6-(2-((((1S,2S)-2-Hydroxycyclopentyl)oxy)methyl)pyrimidin-5-yl)-7-methoxybenzo[d]thiazol-2-yl)cyclopropanecarboxamide]
IC50 (human IRAK-4): 3.92 nM
suppression ratio (footpad volume) ([1]; 20 mg/kg orally twice a day): 45%
suppression ratio (footpad volume) ([1]; 60 mg/kg orally twice a day): 65%
suppression ratio (footpad volume) ([1]; 120 mg/kg orally twice a day): 77%
IC50 [2]: 143 nM
